Numbers after ± are expanded uncertainties.
How the values were obtained:
[1] = wn = mass fraction of the nth substance listed; conditions: for viscosity / mass density: 101 kPa, Liquid; for viscosity: Capillary tube (Ostwald / Ubbelohde) method; for mass density: Pycnometric method; for surface tension liquid-gas: Pendant drop shape
[2] = mn = molality of the nth substance listed, in mol/kg; conditions: for surface tension liquid-gas: Pendant drop shape; for viscosity / mass density: 101 kPa, Liquid; for viscosity: Capillary tube (Ostwald / Ubbelohde) method; for mass density: Pycnometric method
[3] = 288.15 K

CN(CCO)CCO [N-methyldiethanolamine] + O
[1]
Conditions | mass density, 288.15 K [kg/m3] | mass density, 313.15 K [kg/m3] | surface tension liquid-gas, 313.15 K [mN/m] | viscosity, 288.15 K [mPa·s] | viscosity, 313.15 K [mPa·s]
w1 = 0.1 | 1007.1 ± 1 | 1001.1 ± 1 | 58.71 ± 2.1 | 1.711 ± 0.02 | 0.905 ± 0.011
w1 = 0.2 | 1017.5 ± 1 | 1008.1 ± 1 | 54.68 ± 1.9 | 2.631 ± 0.03 | 1.312 ± 0.016

O=C([O-])CC(O)(CC(=O)[O-])C(=O)[O-].[K+].[K+].[K+] [potassium citrate] + O
[2]
Conditions | mass density, 293.15 K [kg/m3] | mass density, 303.15 K [kg/m3] | mass density, 313.15 K [kg/m3] | mass density, 323.15 K [kg/m3] | surface tension liquid-gas, 293.15 K [mN/m] | viscosity, 293.15 K [mPa·s] | viscosity, 303.15 K [mPa·s] | viscosity, 313.15 K [mPa·s] | viscosity, 323.15 K [mPa·s]
m1 = 0.45 | 1117.7 ± 1.2 | 1112.9 ± 1.2 | 1107.8 ± 1.2 | 1104.3 ± 1.2 | 71.49 ± 2.5 | 1.342 ± 0.016 | 1.05 ± 0.012 | 0.845 ± 0.01 | 0.695 ± 0.008
m1 = 0.83 | 1201.1 ± 1.3 | 1197.2 ± 1.3 | 1193.4 ± 1.3 | 1190.3 ± 1.3 | 75.75 ± 2.6 | 1.891 ± 0.022 | 1.448 ± 0.017 | 1.127 ± 0.013 | 0.925 ± 0.011
m1 = 1.16 | 1294.6 ± 1.4 | 1282.5 ± 1.4 | 1274.6 ± 1.4 | 1263.7 ± 1.4 | 79.08 ± 2.8 | 2.933 ± 0.035 | 2.205 ± 0.026 | 1.644 ± 0.019 | 1.291 ± 0.015
m1 = 1.48 | 1355.7 ± 1.4 | 1343.2 ± 1.4 | 1331.9 ± 1.4 | 1322.8 ± 1.4 | 81.1 ± 2.8 | 4.989 ± 0.058 | 3.56 ± 0.042 | 2.597 ± 0.031 | 1.986 ± 0.024

O [water]
Conditions | surface tension liquid-gas [mN/m]
[3], Pendant drop shape | 75.16 ± 2.6

Conditions | viscosity [mPa·s]
[3], 101 kPa, Liquid, Capillary tube (Ostwald / Ubbelohde) method | 1.144 ± 0.013
